Measured values as given in patent US4916065A (priority 1988, dated 1990).
Values after ≈ are worked out from the molar mass of the structure shown. Where two headings read alike, the source gives them in different places.

What was measured:
[1] = tested on: Cryptococcus neoformans IAM4514; experiment: Antifungal MIC, Sabouraud dextrose agar; type: cell-based
[2] = tested on: Aspergillus flavus FA21436; experiment: Antifungal MIC, Sabouraud dextrose agar; type: cell-based
[3] = tested on: Petriellidium boydii IF08073; experiment: Antifungal MIC, Sabouraud dextrose agar; type: cell-based; conditions: Scedosporium boydii
[4] = tested on: Piricularia oryzae D91; experiment: microbe, parasite or virus in culture; type: cell-based
[5] = tested on: Trichophyton mentagrophytes #4329; experiment: Antifungal MIC, Sabouraud dextrose agar; type: cell-based
[6] = tested on: Mucor spinosus IF05317; experiment: Antifungal MIC, Sabouraud dextrose agar; type: cell-based
[7] = tested on: Cryptococcus neoformans D49; experiment: Antifungal MIC, Sabouraud dextrose agar; type: cell-based
[8] = tested on: Fusarium moniliforme A2284; experiment: Antifungal MIC, Sabouraud dextrose agar; type: cell-based; conditions: Fusarium verticillioides
[9] = tested on: Escherichia coli A20665; experiment: Antibacterial MIC, serial agar dilution; type: cell-based; conditions: aerobic, nutrient agar, kanamycin-resistant
[10] = tested on: B16-F10; experiment: In vitro cytotoxicity; type: cell-based, murine; conditions: Mus musculus, 72 hours, neutral red, 540 nm
[11] = tested on: Aspergillus fumigatus IAM2034; experiment: Antifungal MIC, Sabouraud dextrose agar; type: cell-based
[12] = tested on: Staphylococcus aureus A20234; experiment: Antibacterial MIC, serial agar dilution; type: cell-based; conditions: aerobic, nutrient agar, kanamycin-resistant
[13] = tested on: Klebsiella pneumoniae D11; experiment: Antibacterial MIC, serial agar dilution; type: cell-based; conditions: aerobic, nutrient agar
[14] = tested on: Pseudomonas aeruginosa A9930; experiment: Antibacterial MIC, serial agar dilution; type: cell-based; conditions: aerobic, nutrient agar
[15] = tested on: Micrococcus luteus 1001; experiment: Antibacterial MIC, serial agar dilution; type: cell-based; conditions: aerobic, nutrient agar
[16] = tested on: Staphylococcus aureus 209P; experiment: Antibacterial MIC, serial agar dilution; type: cell-based; conditions: aerobic, nutrient agar
[17] = tested on: Staphylococcus epidermidis A22152; experiment: Antibacterial MIC, serial agar dilution; type: cell-based; conditions: aerobic, nutrient agar, kanamycin-resistant
[18] = Solubility; type: physicochemical
[19] = tested on: Escherichia coli A20341-1; experiment: Antibacterial MIC, serial agar dilution; type: cell-based; conditions: A203411, aerobic, nutrient agar, ampicillin-resistant
[20] = tested on: Staphylococcus aureus Smith; experiment: Antibacterial MIC, serial agar dilution; type: cell-based; conditions: aerobic, nutrient agar
[21] = tested on: Trichophyton mentagrophytes D155; experiment: Antifungal MIC, Sabouraud dextrose agar; type: cell-based
[22] = tested on: fungi; experiment: In vitro antifungal activity, overall spectrum; type: cell-based; conditions: all organisms tested except Cryptococcus neoformans
[23] = tested on: Canidia albicans A9540; experiment: Antifungal MIC, Sabouraud dextrose agar; type: cell-based
[24] = tested on: Escherichia coli A9624; experiment: Antibacterial MIC, serial agar dilution; type: cell-based; conditions: aerobic, nutrient agar, kanamycin-resistant
[25] = tested on: Peptostreptococcus anaerobius A21905; experiment: Antibacterial MIC, serial agar dilution; type: cell-based
[26] = tested on: Enterococcus faecalis A9612; experiment: Antibacterial MIC, serial agar dilution; type: cell-based; conditions: aerobic, nutrient agar
[27] = tested on: Staphylococcus aureus A15097; experiment: Antibacterial MIC, serial agar dilution; type: cell-based; conditions: aerobic, nutrient agar, methicillin-resistant
[28] = tested on: Moser; experiment: In vitro cytotoxicity; type: cell-based; conditions: Homo sapiens; 72 hours, neutral red, 540 nm
[29] = tested on: Enterobacter cloacae A9659; experiment: Antibacterial MIC, serial agar dilution; type: cell-based; conditions: aerobic, nutrient agar
[30] = tested on: Clostridium perfringens A9635; experiment: microbe, parasite or virus in culture; type: cell-based
[31] = tested on: Propionibacterium acnes A21933; experiment: Antibacterial MIC, serial agar dilution; type: cell-based; conditions: Cutibacterium acnes, anaerobic, GAM agar
[32] = tested on: Canidia albicans IAM4888; experiment: Antifungal MIC, Sabouraud dextrose agar; type: cell-based
[33] = tested on: Klebsiella pneumoniae A20680; experiment: Antibacterial MIC, serial agar dilution; type: cell-based; conditions: aerobic, nutrient agar, kanamycin-resistant
[34] = tested on: Serratia marcescens A20222; experiment: Antibacterial MIC, serial agar dilution; type: cell-based; conditions: aerobic, nutrient agar
[35] = tested on: P388 leukemia; experiment: Antitumor activity against P388 leukemia (ip); type: in vivo, mice; conditions: for Body weight change on day 4 / MST (median survival time) / T/C: QD × 3, ip; for maximum T/C value: P388, ip, QD × 3
[36] = tested on: Escherichia coli Juhl; experiment: Antibacterial MIC, serial agar dilution; type: cell-based; conditions: aerobic, nutrient agar
[37] = tested on: Staphylococcus aureus BX1633; experiment: Antibacterial MIC, serial agar dilution; type: cell-based; conditions: aerobic, nutrient agar, ampicillin-resistant
[38] = tested on: aerobic and anaerobic bacteria; type: cell-based; conditions: for activity against Gram-negative organisms: versus Gram-positive
[39] = tested on: Escherichia coli NIHJ; experiment: Antibacterial MIC, serial agar dilution; type: cell-based; conditions: aerobic, nutrient agar
[40] = tested on: Bacteroides fragilis A22534; experiment: Antibacterial MIC, serial agar dilution; type: cell-based
[41] = tested on: P388; experiment: In vitro cytotoxicity; type: cell-based, murine; conditions: Mus musculus, 72 hours, viable cell count
Procedure: (§1) On the other hand, the cytotoxic activities against P388 and P388/VCR cells were determined by counting the number of viable cells.

[42] = tested on: P388/VCR; experiment: In vitro cytotoxicity
Procedure: as §1

[43] = tested on: RNA synthesis in L1210 cells; experiment: Inhibition of macromolecule synthesis in L1210 leukemia; type: cell-based; conditions: Mus musculus; 14C-uridine, L1210, 15 min + 60 min, 37° C.
[44] = tested on: Protein synthesis in L1210 cells; experiment: as above; type: cell-based; conditions: Mus musculus; 3H-leucine, L1210, 15 min + 60 min, 37° C.
[45] = tested on: DNA synthesis in L1210 cells; experiment: as above; type: cell-based; conditions: Mus musculus; 3H-thymidine, L1210, 15 min + 60 min, 37° C.
[46] = tested on: HCT-116; experiment: In vitro cytotoxicity; type: cell-based; conditions: Homo sapiens, 72 hours, neutral red, 540 nm
[47] = tested on: Proteus mirabilis A9554; experiment: Antibacterial MIC, serial agar dilution; type: cell-based; conditions: aerobic, nutrient agar
[48] = tested on: Staphylococcus aureus Smith; type: in vivo, mice; conditions: single, im; for No. of survivor/tested: 5 days
Procedure: Mice were challenged intraperitoneally with 100 times the lethal dose of the pathogen in a 5% suspension of hog gastric mucin (American laboratory, Omaha, Nebr.). BU-3420T was administered to mice intramuscularly just before the bacterial challenge.

C[C@@H]1[C@H](O)[C@@H](C)/C=C/C=C/C=C/C=C/C=C/C=C/C=C/[C@H](O[C@@H]2O[C@H](C)[C@@H](O)[C@H](N)[C@@H]2O)C[C@@H]2O[C@](O)(C[C@@H](O)C[C@@H](O)[C@H](O)CC[C@@H](O)C[C@@H](O)CC(=O)O[C@H]1C)C[C@H](O)[C@H]2C(=O)O [Amphotericin B, reference compound]
MIC [1]: < 200 ng/mL | MIC [2]: 3100 ng/mL (≈ 3350 nM) | MIC [3]: > 100000 ng/mL | MIC [4]: 3100 ng/mL (≈ 3350 nM) | MIC [5]: 3100 ng/mL (≈ 3350 nM) | MIC [6]: 800 ng/mL (≈ 866 nM) | MIC [7]: < 200 ng/mL | MIC [8]: 12500 ng/mL (≈ 13500 nM)

COC1=C(C(=O)O)C(C)C23OC24c2cc(OC(C)=O)c5c(c2NC3C#C/C=C\C#CC14)C(=O)c1c(OC(C)=O)ccc(OC(C)=O)c1C5=O (centres unmarked) [BU-3420T acetate]
MIC [9]: 13 ng/mL | IC50 [10]: 0.7 ng/mL | MIC [11]: < 50 ng/mL | MIC [1]: 800 ng/mL | MIC [12]: 0.0063 ng/mL | MIC [13]: 0.8 ng/mL | MIC [14]: 6.3 ng/mL | MIC [15]: 0.2 ng/mL | MIC [16]: 0.0063 ng/mL | MIC [17]: 0.013 ng/mL | solubility in organic solvents compared with BU-3420T ([18]; organic solvents such as chloroform, methanol and ethanol): much improved solubility | MIC [19]: 25 ng/mL | MIC [20]: 0.0063 ng/mL | MIC [21]: 400 ng/mL | antifungal activity versus amphotericin B [22]: significantly more potent than amphotericin B | MIC [2]: 400 ng/mL | MIC [23]: 200 ng/mL | MIC [24]: 6.3 ng/mL | MIC [25]: 25 ng/mL | MIC [5]: 800 ng/mL | MIC [26]: 0.1 ng/mL | MIC [6]: 200 ng/mL | MIC [27]: 0.0063 ng/mL | IC50 [28]: 0.003 ng/mL | MIC [29]: 6.3 ng/mL | MIC [30]: 13 ng/mL | MIC [31]: 13 ng/mL | MIC [32]: 400 ng/mL | MIC [33]: 13 ng/mL | MIC [34]: 6.3 ng/mL | MIC [7]: 800 ng/mL | Body weight change on day 4 ([35]; 0.5 mg/kg/day): -0.5 g | MST (median survival time) ([35]; 0.5 mg/kg/day): 13.5 days | T/C ([35]; 0.5 mg/kg/day): 135% | Body weight change on day 4 ([35]; 1.0 mg/kg/day): -0.8 g | MST (median survival time) ([35]; 1.0 mg/kg/day): 11.0 days | T/C ([35]; 1.0 mg/kg/day): 110% | maximum T/C value [35]: 135% | MIC [36]: 6.3 ng/mL | MIC [37]: 0.0063 ng/mL | activity against Gram-negative organisms [38]: a little less susceptible | activity against Gram-positive aerobic bacteria [38]: intensely potent activity | activity against anaerobic Gram-positive and negative bacteria versus clindamycin [38]: much more active than clindamycin | activity against certain kanamycin- and clindamycin-resistant bacteria [38]: susceptible to both compounds | MIC [39]: 6.3 ng/mL | MIC [40]: 50 ng/mL | MIC [8]: < 50 ng/mL

COC1=C(C(=O)O)C(C)C23OC24c2cc(O)c5c(c2NC3C#C/C=C\C#CC14)C(=O)c1c(O)ccc(O)c1C5=O (centres unmarked) [BU-3420T]
MIC [9]: 50 ng/mL (≈ 93 nM) | IC50 [10]: 5.2 ng/mL (≈ 9.67 nM) | MIC [1]: 12500 ng/mL (≈ 23300 nM) | IC50 [41]: 0.4 ng/mL (≈ 0.744 nM) | MIC [15]: 0.8 ng/mL (≈ 1.49 nM) | IC50 ([42]; Mus musculus, P388/VCR, 72 h): 0.4 ng/mL (≈ 0.744 nM) | cytotoxicity against VCR-sensitive versus resistant P388 cells ([42]; P388 versus P388/VCR): same cytotoxicities against both VCR-sensitive and resistant P388 cells | MIC [16]: 0.013 ng/mL (≈ 0.0242 nM) | MIC [17]: 0.05 ng/mL (≈ 0.093 nM) | IC50 [43]: 9200 ng/mL | solubility ([18]; chloroform, ethyl acetate, methanol and ethanol): slightly soluble | solubility ([18]; dimethyl sulfoxide, dimethylformamide and dioxane): soluble | solubility ([18]; water and n-hexane): insoluble | MIC [21]: 12500 ng/mL (≈ 23300 nM) | MIC [24]: 50 ng/mL (≈ 93 nM) | MIC [5]: 12500 ng/mL (≈ 23300 nM) | MIC [26]: 0.4 ng/mL (≈ 0.744 nM) | MIC [6]: 12500 ng/mL (≈ 23300 nM) | IC50 [44]: 1500 ng/mL | IC50 [28]: 0.85 ng/mL (≈ 1.58 nM) | MIC [29]: 50 ng/mL (≈ 93 nM) | IC50 [45]: 18 ng/mL | MIC [31]: 13 ng/mL (≈ 24.2 nM) | IC50 [46]: 0.42 ng/mL (≈ 0.781 nM) | MIC [32]: 12500 ng/mL (≈ 23300 nM) | MIC [7]: 12500 ng/mL (≈ 23300 nM) | Body weight change on day 4 ([35]; 0.5 mg/kg/day): 0.0 g | MST (median survival time) ([35]; 0.5 mg/kg/day): 13.0 days | T/C ([35]; 0.5 mg/kg/day): 130% | Body weight change on day 4 ([35]; 1.0 mg/kg/day): -0.5 g | MST (median survival time) ([35]; 1.0 mg/kg/day): 13.5 days | T/C ([35]; 1.0 mg/kg/day): 135% | maximum T/C value [35]: 135% | MIC [36]: 50 ng/mL (≈ 93 nM) | MIC [47]: 13 ng/mL (≈ 24.2 nM) | activity against Gram-negative organisms [38]: a little less susceptible | activity against Gram-positive aerobic bacteria [38]: intensely potent activity | activity against anaerobic Gram-positive and negative bacteria versus clindamycin [38]: much more active than clindamycin | activity against certain kanamycin- and clindamycin-resistant bacteria [38]: susceptible to both compounds | MIC [39]: 50 ng/mL (≈ 93 nM) | No. of survivor/tested ([48]; 0.01 mg/kg): 0/5 | No. of survivor/tested ([48]; 0.04 mg/kg): 0/5 | ED50 ([48]; Staphylococcus aureus, 120 h, just before challenge, 5 days observation, read-out: PD50 (median protective dose)): 0.13 mg/kg
